Measured values published in paper PMC3375280 (PLoS ONE, 2012).
Positions count from the first letter of the chain named.

Columns and labels:
[1] = biological target: T1, AT1 Y113A mutant receptor (Rattus norvegicus, UniProt P25095, Y113A); test: competition binding, Y113A mutant; conditions: for Kd ratio relative to WT (in parentheses): Y113A / WT; for Kd: Y113A, COS1 membranes, read-out: Binding affinity (Kd)
T1 construct: expressed in transfected cells; host or cells: COS1
T1 sequence (P25095 1-359 Y113A): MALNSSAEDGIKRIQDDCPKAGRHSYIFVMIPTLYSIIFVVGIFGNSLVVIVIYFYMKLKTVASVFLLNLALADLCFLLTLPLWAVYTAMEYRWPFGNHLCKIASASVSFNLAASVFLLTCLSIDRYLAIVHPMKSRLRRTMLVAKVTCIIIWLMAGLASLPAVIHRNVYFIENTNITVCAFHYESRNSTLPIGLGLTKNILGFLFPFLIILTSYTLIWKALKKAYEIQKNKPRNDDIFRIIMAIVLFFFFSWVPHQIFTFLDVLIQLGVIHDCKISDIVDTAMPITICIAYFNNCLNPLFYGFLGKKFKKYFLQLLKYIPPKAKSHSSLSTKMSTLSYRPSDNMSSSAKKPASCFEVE
Protocol: (§1) The Kd and Bmax values of receptor binding were determined by ^125I-[Sar^1, Ile^8] […] Membranes expressing the WT or mutant AT1 receptors were incubated with 100 pM ^125I-[Sar^1, Ile^8] […] The binding reaction was terminated by filtering the incubation mixture through Whatman GF/C glass filters, and the residues were extensively washed further with binding buffer. The bound ligand fraction was determined from the counts per minute (cpm) remaining on the membrane. Binding kinetics values were determined as previously described.

[2] = biological target: T2, AT1 C76A/F110C/C289A mutant receptor (Rattus norvegicus, UniProt P25095, C289A/C76A/F110C); test: competition binding, C76A/F110C/C289A mutant; conditions: for Kd ratio relative to WT (in parentheses): C76A/F110C/C289A / WT; for Kd: C76A/F110C/C289A, COS1 membranes, read-out: Binding affinity (Kd)
T2 construct: expressed in transfected cells; host or cells: COS1
T2 sequence (P25095 1-359 C76A/F110C/C289A): T1 sequence (P25095 1-359 Y113A) with C76A, F110C, A113Y, C289A
Protocol: as §1

[3] = biological target: T3, AT1 C76A/L112C/C289A mutant receptor (Rattus norvegicus, UniProt P25095, C289A/C76A/L112C); test: substituted cysteine accessibility mapping (SCAM), C76A/L112C/C289A; type: binding; set-up: key to Cysteine accessibility at Leu112 compared to ligand (-): Less and More indicate that the AT1 receptor is less or more accessible to the ligand pocket, respectively; Less and More indicate that the AT1 receptor is less or more accessible to the ligand pocket, respectively; No change; conditions: for % inhibition of 125I-[Sar1,Ile8]Ang II binding by MTSEA+ after ligand pre-incubation: C76A/L112C/C289A mutant, 1 µM ligand, comparison in words; for Cysteine accessibility at Leu112 compared to ligand (-): SCAM, 1 µM ARB, […] MTSEA+, COS1 membranes
T3 construct: expressed in transfected cells; host or cells: COS1
T3 sequence (P25095 1-359 C76A/L112C/C289A): T1 sequence (P25095 1-359 Y113A) with C76A, L112C, A113Y, C289A
Source text: As we reported previously, the percentage (%) inhibition of ^125I-[Sar^1, Ile^8] AngII binding by methanethiosulphonate ethyl-ammonium (MTSEA^+) reagent was approximately 30% on AT1 receptor, since Cys^76 in TM2 was accessible to water within the ligand pocket. In addition, mechanical stretching increased the accessibility of Cys^289 by inducing a change in the conformation of TM7 [22]. To differentiate between single and multiple movements of one or more native cysteines, we created TM3 residues that were substituted with cysteine one at a time from […] to Phe^117 using the C76A/C289A mutant genetic background and evaluated each triple mutant for MTSEA sensitivity.
Figure 3 Changes in cysteine accessibility in COS1 cells expressing C76A/C289A mutant receptors in which the transmenbrane 3 residues from Ala^106 to Phe^117, except for position 113, were successively replaced by cysteine. 1 µM of ARBs, n=4–9, *p<0.05 vs. no treatment. #p<0.05 vs. C76A/C289A.
The SCAM method has been used to probe relative changes in the conformation of constitutively active AT1 receptor [20]–[22] and other GPCRs, [30] by validating the presence of Cys residues within the ligand pocket. We used a highly reactive, sulfhydryl-specific reaction with methanethiosulfonyl ethyl-ammonium (MTSEA^+), which reacts a billion times faster with water-exposed and ionized Cys than with lipid-exposed and un-ionized Cys. In this reaction, a positively charged sulfonylmethylammonium group is added to a water-exposed Cys. Aliquots of cell membranes are incubated with or without ARBs for 20 min in phosphate buffer at room temperature. The membranes are then diluted with same buffer and centrifuged. After washout the cell membranes, the membranes are incubated with 2.5 mM MTSEA^+ at room temperature for 2 min in HEPES buffer (pH7.4). The Membranes are then diluted with same buffer to stop the reaction and centrifuged. One hundred µl aliquots were used to assay for ^125I-[Sar^1,Ile^8]Ang II binding. The fractional inhibition is calculates 1 − [(specific binding after MTX reagent) / (specific binding without reagent)].

[4] = biological target: T4, AT1 A106G mutant receptor (Rattus norvegicus, UniProt P25095, A106G); test: competition binding, A106G mutant; conditions: for Kd ratio relative to WT (in parentheses): A106G / WT; for Kd: A106G, COS1 membranes, read-out: Binding affinity (Kd)
T4 construct: expressed in transfected cells; host or cells: COS1
T4 sequence (P25095 1-359 A106G): T1 sequence (P25095 1-359 Y113A) with A106G, A113Y
Protocol: as §1

Kd ratio relative to WT (in parentheses) [1]	Kd [1]	Kd ratio relative to WT (in parentheses) [2]	Kd [2]	Kd ratio relative to WT (in parentheses) [4]	Kd [4]	Cysteine accessibility at Leu112 compared to ligand (-) [3]	Cysteine accessibility at Leu112 compared to ligand (-) ([3]; listed as olmesartan)	Compound	% inhibition of 125I-[Sar1,Ile8]Ang II binding by MTSEA+ after ligand pre-incubation [3]
38 fold	1.8 ± 0.205 µM	2.6 fold	0.126 ± 0.013 µM	17 fold	0.792 ± 0.202 µM			CCCc1nc(C(C)(C)O)c(C(N)=O)n1Cc1ccc(-c2cc(Cc3ccc(O)cc3)ccc2-c2nnn[nH]2)cc1 [R794847]	significantly lower than those with olmesartan and R239470
5.2 fold	0.012 ± 0.003 µM	2.9 fold	0.0066 ± 0.0024 µM	2.6 fold	0.0061 ± 0.0022 µM	Less	less accessibility	CCCc1nc(C(C)(C)O)c(C(=O)O)n1Cc1ccc(-c2ccccc2-c2nnn[nH]2)cc1 [Olmesartan, olmesartan, reference compound]	significantly lower than that with ligand (-)
183 fold	0.146 ± 0.015 µM	3.0 fold	0.0024 ± 0.0011 µM	6.0 fold	0.0048 ± 0.0015 µM			CCCc1nc(C(C)(C)O)c(C(N)=O)n1Cc1ccc(-c2ccccc2-c2nnn[nH]2)cc1 [R239470]	significantly lower than that with ligand (-)
